In patent US20230190743A1, “TREATMENT WITH ILEAL BILE ACID TRANSPORTER (IBAT) INHIBITORS FOR INCREASED EVENT-FREE SURVIVAL (EFS)” (Mirum Pharmaceuticals, Inc., priority 2021, published 2023):

How the values were obtained:
Format in all cases: in vivo, human
[1] = tested on: patients with Alagille syndrome (ALGS); assay: 6-year event-free survival analysis, maralixibat cohort versus GALA control group
Excerpt: Real-world evidence (RWE) analytics continue to advance natural history comparisons in rare diseases. GALA is the largest global clinical research database for […] syndrome (ALGS). Maralixibat (MRX) is an ileal bile acid transporter inhibitor being studied in ALGS. A pre-specified analysis plan applied novel analytical techniques to compare RWE to a MRX cohort with the aim to compare event-free survival (EFS) in patients with ALGS. GALA contains retrospective data for clinical parameters, biochemistries and outcomes. The MRX database comprises of 84 ALGS patients with up to 6 years of data. EFS was defined as the time to first event of hepatic decompensation (variceal bleeding, ascites requiring therapy), surgical biliary diversion, liver transplantation (LT), or death. GALA was filtered to align key MRX eligibility criteria. The index time was determined via maximum likelihood estimation. Balance among baseline (BL) variables was assessed. Selection of patients and index time was blinded to clinical outcomes. Sensitivity and subgroup analyses, and adjustments for covariates were applied. Missing outcomes data were censored at last contact.

[2] = tested on: patients with BSEP deficiency (PFIC2); assay: INDIGO Phase 2 trial, HRQoL analysis by sBA treatment response at week 48; parameters: key to HRQoL score at week 48, PedsQL Generic Core Scale / HRQoL score at week 48, Multidimensional Fatigue Scale / HRQoL score at week 48, Family Impact Scale: HRQoL scale scores in points; MCID = 5 points; key to Beta, sBA treatment response at week 48 Yes vs No, Multidimensional Fatigue Scale / Beta, sBA treatment response at week 48 Yes vs No, Family Impact Scale: change from baseline in HRQoL score, in points (MCID 5 points); conditions: for 5-point change, Family Impact Scale / 5-point change, Multidimensional Fatigue Scale / 5-point change, PedsQL Generic Core Scale / 10-point change, Family Impact Scale / 10-point change, Multidimensional Fatigue Scale / 10-point change, PedsQL Generic Core Scale: baseline to week 48; for HRQoL score at week 48, Family Impact Scale / HRQoL score at week 48, Multidimensional Fatigue Scale / HRQoL score at week 48, PedsQL Generic Core Scale / HRQoL score change from baseline to week 48, Family Impact Scale: mean ± SD
Protocol: This retrospective analysis included data from patients with BSEP deficiency from the INDIGO Phase 2 open-label trial of MRX in children with PFIC. Pruritus was measured using a validated caregiver-reported Itch Reported Outcome (ItchRO) severity assessment tool (0=none to 4=very severe). Serum bile acid (sBA) response with MRX was defined as a >75% decrease from baseline or reduction to <102 μmol/L from baseline to week 48. HRQoL was assessed using the Pediatric Quality of Life Inventory Generic Core (PedsQL), Family Impact (FI), and Multidimensional Fatigue (MF) scale scores, and were collected via caregiver. The minimal clinically important difference (MCID) for the HRQoL assessments is 5 points. A subset of individual items from the HRQoL scales were also selected for assessment with treatment response. HRQoL was assessed at baseline and week 48 and scores were stratified by treatment response. P-values were calculated using t-test or ANOVA. Multivariate linear regression models were used to assess the relationship between mean change from baseline in HRQoL score and indicators for treatment response, adjusting for baseline HRQoL.

[3] = tested on: children with ALGS; assay: ICONIC study, correlation of pruritus intensity (ItchRO) with cholestasis biomarkers and quality of life
Excerpt: This study evaluates how change in pruritus intensity correlates with change in cholestasis biomarkers in children with ALGS receiving maralixibat (ICONIC study; NCT02160782, described above). The goal of the present study is to characterize correlations between pruritus, as measured by the Itch-Reported Outcome (ItchRO) Observer tool, and multiple parameters, including sBA and sBA subspecies, autotaxin (ATX), and quality of life measures following maralixibat treatment in children with ALGS. Twenty-nine of the 31 enrolled participants completed 48 weeks of treatment, with 27 evaluated for this analysis.

[4] = over the 48 weeks, controlling for baseline score

SMILES: CCCCC1(CCCC)CS(=O)(=O)c2ccc(N(C)C)cc2[C@@H](c2ccc(OCc3ccc(C[N+]45CCN(CC4)CC5)cc3)cc2)[C@H]1O [maralixibat]
- crude 6-year EFS ([1]; MRX cohort, patients with ALGS (GALA control 50%)): 73%
- EFS hazard ratio (HR), MRX cohort vs GALA control ([1]; adjusted for age, sex, TB, ALT, 95% CI:0.189-0.491, p<0.0001): 0.305
- patients who achieved sBA treatment response ([2]; at 48 weeks): 6 patients
- patients who achieved sBA treatment response (>75% decrease from baseline or <102 μmol/L) ([2]; at 48 weeks): 28.6%
- Beta, sBA treatment response at week 48 Yes vs No, Multidimensional Fatigue Scale ([2]; multivariate regression, N = 16, CI 3.5, 41.1): 22.3
- Beta, sBA treatment response at week 48 Yes vs No, Family Impact Scale ([2]; multivariate regression, N = 20, CI −7.7, 19.4): 5.8
- average increase of Multidimensional Fatigue scale score, sBA responders versus non-responders [2, 4]: 22 points
- mean increase of PedsQL score, sBA responders versus non-responders [2, 4]: 17 points
- 5-point change, Family Impact Scale ([2]; sBA Non-responders): 1 (7.1) n (%)
- 5-point change, Multidimensional Fatigue Scale ([2]; sBA Non-responders): 3 (25.0) n (%)
- 5-point change, PedsQL Generic Core Scale ([2]; sBA Non-responders): 2 (15.4) n (%)
- 10-point change, Family Impact Scale ([2]; sBA Non-responders): 1 (7.1) n (%)
- 10-point change, Multidimensional Fatigue Scale ([2]; sBA Non-responders): 2 (16.7) n (%)
- 10-point change, PedsQL Generic Core Scale ([2]; sBA Non-responders): 2 (15.4) n (%)
- HRQoL score at week 48, Family Impact Scale ([2]; sBA Non-responders): 62.7 ± 16.0
- HRQoL score at week 48, Multidimensional Fatigue Scale ([2]; sBA Non-responders): 69.2 ± 18.5
- HRQoL score at week 48, PedsQL Generic Core Scale ([2]; sBA Non-responders): 65.9 ± 13.8
- HRQoL score change from baseline to week 48, Family Impact Scale ([2]; sBA Non-responders): −2.5 ± 9.8
- 5-point change, Family Impact Scale ([2]; sBA Responders): 4 (66.7) n (%)
- 5-point change, Multidimensional Fatigue Scale ([2]; sBA Responders): 4 (100) n (%)
- 5-point change, PedsQL Generic Core Scale ([2]; sBA Responders): 4 (80.0) n (%)
- 10-point change, Family Impact Scale ([2]; sBA Responders): 4 (66.7) n (%)
- 10-point change, Multidimensional Fatigue Scale ([2]; sBA Responders): 4 (100) n (%)
- 10-point change, PedsQL Generic Core Scale ([2]; sBA Responders): 3 (60.0) n (%)
- HRQoL score at week 48, Family Impact Scale ([2]; sBA Responders): 60.0 ± 15.5
- HRQoL score at week 48, Multidimensional Fatigue Scale ([2]; sBA Responders): 76.0 ± 13.4
- HRQoL score at week 48, PedsQL Generic Core Scale ([2]; sBA Responders): 79.3 ± 9.5
- HRQoL score change from baseline to week 48, Family Impact Scale ([2]; sBA Responders): 8.0 ± 20.7
- patients with a change of ≥5 points in PedsQL Generic Core Total Scale Score ([2]; sBA non-responders): 15.4%
- patients with a ≥10-point change in PedsQL Multidimensional Fatigue Total Scale Score ([2]; sBA non-responders): 16.7%
- change in Family Impact Score from baseline to week 48 ([2]; sBA responders): > 1.5 times the MCID
- patients with a change of ≥5 points in PedsQL Generic Core Total Scale Score ([2]; sBA responders): 80.0%
- patients with a ≥10-point change in PedsQL Multidimensional Fatigue Total Scale Score ([2]; sBA responders): 100%
- overall average ItchRO score reduction ([3]; at week 48): 1.6 points
- ItchRO score reduction of the one participant who normalized ([3]; one participant): −3.5 points
- pruritus, using ItchRO and CSS scores ([3]; result in words): significant and clinically meaningful improvements in pruritus
- Change in ItchRO score (points) ([3]; sBA reduction (%) 50, N 8): −1.90 points
- Change in ItchRO score (points) ([3]; sBA reduction (%) 60, N 8): −2.12 points
- Change in ItchRO score (points) ([3]; sBA reduction (%) 70, N 6): −2.31 points
- Change in ItchRO score (points) ([3]; sBA reduction (%) 80, N 3): −2.79 points
- Change in ItchRO score (points) ([3]; sBA reduction (%) 90, N 1): −2.71 points
